Paper PMC5719408, “Multivalent cross-linking of actin filaments and microtubules through the microtubule-associated protein Tau” (Nature Communications, 2017)
“Also recorded” adds a separate entry of the source.

Legend:
[1] = test system: F-actin; assay: Protein co-sedimentation / actin bundling (differential centrifugation, SDS gel); assay type: biochemical, human; conditions: co-sedimentation; F-actin with Tau (1:1) or Tau peptides (1:10; Tau(254–268) 1:30), room temperature 30 min
Experimental: The ability of Tau to bundle F-actin was studied using electron microscopy (EM). […] Next, Tau/F-actin co-sedimentation was performed. The same sample, which was used for EM, was exposed to two sequential steps of centrifugation, in which single-actin filaments and actin bundles were collected separately. Subsequently, aliquots from supernatant (SN), filament (PF), and bundle (PB) fractions were loaded in a 4–20% gradient gel (Fig. 1c).
The sample was then dialyzed against General Actin Buffer (GAB; 5 mM TrisHCl pH 8.0, 0.2 mM CaCl2, 0.2 mM ATP, 0.5 mM DTT) or NMR buffer (50 mM NaH2PO4/Na2HPO4 pH 6.8, 10 mM NaCl, 1 mM DTT, 10% (v/v) D2O) to be used for electron microscopy or NMR experiments, respectively. In case of actin, lyophilized actin was reconstituted to 10 mg ml^−1 by adding 100 μl of distilled water to be in the following buffer: GAB with 5% (w/v) sucrose and 1% (w/v) dextran. Subsequently, the sample was spun at 18,400 × g for 15 min, the supernatant was kept, and actin was polymerized by incubating 0.4 mg ml^−1 G-actin in GAB and supplemented with polymerization buffer (1/10th the volume; 100 mM Tris HCl pH 7.5, 20 mM MgCl2, 500 mM KCl, 10 mM ATP) for 1 h at room temperature. Afterwards, the sample was centrifuged at 100,000 × g during 1 h at 4 °C. Filaments were collected at the bottom of the ultracentrifuge tube. The pellet was then resuspended in GAB or NMR Buffer as required.
Mixtures of F-actin with Tau (1:1) or Tau peptides (1:10 molar ratio) were incubated at room temperature for 30 min. In case of the shorter peptide Tau(254–268), a 1:30 ratio was used. Centrifugation was performed in two steps. First, a spin rate of 5000 × g was used during 15 min to collect bundles of F-actin (PB) at the bottom of the tube. Secondly, the remaining sample was centrifuged at 100,000 × g during 1 h collecting actin filaments (PF). The final supernatant (SN) was also kept for later usage. Pellets were resuspended in 80 μl of GAB. A volume of 25 μl of sample were taken for EM while the remaining 55 μl were loaded in a 4–20% gradient SDS gel, which was colored with […] and denatured with SDS and heat.

[2] = test system: F-actin; assay: 2D 1H-15N HSQC NMR signal attenuation of Tau by F-actin; assay type: binding, human; conditions: Tau/F-actin molar ratio 1:1.5; compared with non-phosphorylated Tau
Source text: In order to identify residues in Tau that bind to F-actin, we used NMR spectroscopy. […] According to the resonance assignment of Tau[27], cross-peaks from residues such as S262, N265, and T319 were strongly attenuated. Other residues including T175 and T217 were less affected, and S46 and S64 were not perturbed. Figure 1f highlights the sequence specific intensity ratio of all non-overlapping cross-peaks of Tau in the presence and absence of F-actin. […] In contrast, residues, which are bound to F-actin, should have low (I bound/I free) values, because their resonances would—due to the high molecular weight of the complex—be attenuated. […] Consistent with this hypothesis, the cross-peaks of these residues were attenuated by F-actin also at higher ionic strength (Supplementary Fig. 3).
The sample was then dialyzed against General Actin Buffer (GAB; 5 mM TrisHCl pH 8.0, 0.2 mM CaCl2, 0.2 mM ATP, 0.5 mM DTT) or NMR buffer (50 mM NaH2PO4/Na2HPO4 pH 6.8, 10 mM NaCl, 1 mM DTT, 10% (v/v) D2O) to be used for electron microscopy or NMR experiments, respectively. In case of actin, lyophilized actin was reconstituted to 10 mg ml^−1 by adding 100 μl of distilled water to be in the following buffer: GAB with 5% (w/v) sucrose and 1% (w/v) dextran. […]

Substance: MARK2-phosphorylated Tau: full-length Tau phosphorylated by MARK2 at S262, S293, S305, S324, S356, and S416
- bundling of F-actin [1]: failed in bundling actin filaments
- F-actin-induced NMR signal attenuation near phosphorylation sites / F-actin binding in words [2]: little attenuation of NMR signals in vicinity of the phosphorylation sites; also recorded: attenuates its binding to F-actin
